Patent US6914057B1, “Inhibitor of cataract formation” (The Research Foundation of State University of New York, priority 1998, dated 2005)

Tests used:
[1] = system: Type II ZDF/GMI diabetic rats; assay: Development of cataracts in Type II ZDF/GMI diabetic rats treated with tetracycline analogues; assay type: in vivo, rat; conditions: for percentage of Type II ZDF/GMI diabetic rats that developed cataracts: FIG. 1, treated diabetic rats, oral dose of 15 mg/kg
Excerpt: Diabetics develop posterior subcapsular cataracts, characterized by a central opacity in the nucleus and cortex. […] In the current study, CMT-8 administration to the Type II diabetic rats reduced the incidence of cataract development by […] at five months. In fact, this therapeutic effect may have been underestimated since it was an unexpected finding and, therefore, was not documented at the earlier time points. The mechanisms by which Type II (and Type I) diabetes causes the development of these cataracts is not yet understood.
Specifically, approximately 60% of untreated Type II ZDF/GMI diabetic rats developed cataracts whereas approximately 42% of Type II ZDF/GMI diabetic rats treated with CMT-8 developed cataracts.
In particular, approximately 60% of Type II ZDF/GMI diabetic rats treated with doxycycline developed cataracts and approximately 70% of Type II ZDF/GMI diabetic rats treated with CMT-3 developed cataracts.
It is believed that the lack of efficacy for doxycycline and CMT-3 was due to the serum concentration achieved. […] The peak serum concentration for doxycycline was determined to be 0.9 μg/ml and the peak serum concentration for CMT-3 was determined to be 4.6 μg/ml. The peak serum concentration, though, for CMT-8 was determined to be 15 μg/ml. Liu et al., The Lipophilicity and Pharmacokdnetics of Different Chemically-Modified Tetracyclines (CMTs) In Vivo, Current Medicinal Chemistry, submitted for publication in September 1999. Clearly, administration of higher oral doses of CMT-3 and doxycycline would be needed to achieve serum concentrations similar to CMT-8.
FIGS. 2 and 3 provide a comparison of healthy untreated rats with untreated Type II ZDF/GMI diabetic rats and Type II ZDF/GMI diabetic rats treated with doxycycline and CMT-8.

[2] = rat; oral dose of 15 mg/kg; cited from earlier work

| SMILES | percentage of Type II ZDF/GMI diabetic rats that developed cataracts [1] | peak serum concentration [2] [µg/mL] | cataract development in photographs compared with non-diabetic control rats (in words) ([1]; FIGS. 2 and 3, treated Type II ZDF/GMI diabetic rats) | reduction of the incidence of cataract development ([1]; Type II diabetic rats, at five months) [%] | prevention of cataract development (in words) ([1]; ZDF/Gmi-fa Type II diabetic rats, at five months) |
| --- | --- | --- | --- | --- | --- |
| NC(=O)C1=C(O)C[C@@H]2C[C@@H]3Cc4cccc(O)c4C(=O)C3=C(O)[C@]2(O)C1=O [CMT-3, 6-demethyl-6-deoxy-4-dedimethylaminotetracycline] | approximately 70% | 4.6 | – | – | – |
| CC1c2cccc(O)c2C(O)=C2C(=O)C3(O)C(O)=C(C(N)=O)C(=O)CC3C(O)C21 (stereo not drawn) [CMT-8, 5-hydroxy-6-α-deoxy-4-dedimethylaminotetracycline] | approximately 42% | 15 | Cataracts do not appear to have developed | 37 | appeared to prevent the development of these cataracts |
| C[C@H]1c2cccc(O)c2C(=O)C2=C(O)[C@]3(O)C(=O)C(C(N)=O)=C(O)[C@@H](N(C)C)[C@@H]3[C@@H](O)[C@@H]21 [doxycycline, reference compound] | approximately 60% | 0.9 | – | – | – |
